According to patent publication US7144731B2, “SCF antibody compositions and methods of using the same” (Amgen Inc., priority 1989, dated 2006):
“Also recorded” adds a separate entry of the source.

Legend:
Balb/c mice = assay: 5-FU experimental thrombocytopenia; assay type: in vivo, mouse
Experimental: Balb/c mice were either untreated or treated intravenously with 5-fluorouracil (150 mg/kg) on Day 0 (n=5). Blood analyses were performed on the indicated days as in legend to FIG. 53. Error bars are present, but not discernable, in some of the control points. […] After Day 12, platelet counts appeared to cycle from normal to high levels throughout the 40 day testing period. […] Two Balb/c mice per group were sacrificed at the indicated days. Cells from bone marrow (Panel A) or spleen (Panel B) were aliquoted at 100,000/well of a microtiter plate and stained for acetylcholinesterase according to published procedures, Long et al., Immature megakaryocytes in the mouse: Morphology and quantitation by acetlycholinesterase staining. Blood 58: 1032, 1981. Data points are the percentage of ACH+ cells per well for individual animals.
Platelet volumes also increase after 5-FU (FIG. 57). The data in this figure were generated from the same blood samples collected in FIG. 55. Mean Platelet Volume (MPV) is one of the parameters analyzed by the Sysmex Cell Analyzer.
The possibility of a relationship between SCF and the physiological regulator of platelet production induced in the 5-FU thrombocytopenic model was explored. 5-FU was given to normal mice and SCF mRNA expression levels quantitated in bone marrow cells collected on the days indicated in FIG. 58. In FIG. 58, one million cells were lysed in SDS buffer and the lysate was analyzed for the presence of mRNA specific for murine SCF. […] RNA sense strand standards for quantitation of the hybridization assays were produced by runoff transcription of the same region in the direction opposite to the direction of probe synthesis using tracer quantities of ^35S-UTP and 0.2 mM unlabeled UTP.
SCF or actin mRNA levels were quantitated as follows. […] After addition of 5 mls Liquiscint (New England Nuclear; Boston, Mass.) samples were counted 20 minutes or to 3% error. […]

[1] = target: T1, SCF receptor (OCIM1 plasma membrane) (Homo sapiens, UniProt P10721); assay: SCF radioreceptor assay; assay type: binding
T1 construct: endogenous in cells; host or cells: OCIM1 human erythroleukemic cells, plasma membrane preparation
Experimental: OCIM1 cells, [Papayannopoulou et al., Blood 72:1029–1038 (1988)] are a human erythroleukemic cell line expressing many human SCF receptors per cell. These cells are grown in Iscove's Modified Dulbecco's Medium, 10% FBS, and 1× glutamine and passaged 3 times a week to 1×10^5 cells/ml.
Preparation of the OCIM1 plasma membrane is as follows with all steps performed on ice.
First, 40 T175 flasks of cells were grown-up in OCIM1 culture medium, for a total of 1.9×10^9 […]. The conditioned medium and 1 mM Phenyl Methyl Sulfonyl Fluoride (PMSF) protease inhibitor, was spun down in 8×250 ml tubes at 1000 rpm for 10 minutes at 4° C. Cells were washed with PBS and repelleted in 4×50 ml centrifuge tubes at 1000 rpm for 10 minutes at 4° C. Cells were resuspended in 20 ml ice cold PBS with glucose sodium pyruvate (Gibco Cat #310-4287). The 20 ml cell solution was put into a pre-pressurized, pre-chilled (4° C.) “cell bomb” designed to lyse the cells. Cells were pressurized at 400–650 PSI for 10 minutes to establish equilibrium. When the pressure is released cell lysis occurs.
At this point the cells were checked for the percentage of cell lysis. 90% lysis was common. The cell suspension was resuspended in 80 mls sucrose buffer (0.25M sucrose, 10 mM Tris, 1 mM EDTA in double distilled (dd) H2O, filtered through a 0.45 u filter, pH 7.0) and divided between two 40 ml screwcap tubes. Tubes were spun at 5900 RPM for 10 minutes in a Beckman J2-21 centrifuge, JA-20 rotor at 4° C. The supernatants were saved and spun one more time as above to further remove any unwanted material. Supernatants were saved and distributed equally into 2 nalgene 40 ml centrifuge tubes. These supernatants were centrifuged at 16,000 RPM 4° C. for 30 min. in J2-21 centrifuge, JA-20 rotor. These supernatants were discarded being careful to save pellets. Each pellet was resuspended in sucrose buffer so there were 20 mls per tube in 4×36 ml plastic ultracentrifuge tubes. Using a 20 ml syringe and a large trochar, the solution was carefully underlayered in each tube with ice cold 36% sucrose solution (36.1 g sucrose/100 mls ddH2O), bringing the level of the liquid to within 2 mm of the top of the tube. Without disturbing the interface, each tube was carefully placed into each of […] titanium ultracentrifuge tubes. Tubes were centrifuged at 27,000 RPM, 4° C. for 75 minutes in an ultracentrifuge. These tubes were carefully removed from the rotor and from titanium buckets, placed in a rack with the 36% sucrose interface visible. The membraneous material at the interface was collected with a pasteur pipet and transfered into 2 clean nalgene 40 ml centrifuge tubes. Volume was brought up to 40 mls with ice cold sucrose buffer. Tubes were balanced and centrifuged as before at 5900 RPM in J2-21 centrifuge. […]

UT-7 cells = assay: UT-7 ^3H-thymidine uptake assay; assay type: cell-based, human
Experimental: UT-7 cells are a human megakaryocyte, huGM-CSF responsive cell line obtained from John Adamson, New York Blood Center, New York, N.Y. UT-7 cells were cultured in Iscove's Modified Dulbecco's Medium, 10% FBS, 1× glutamine, 5 \g/ml huGM-CSF. Cells are passaged twice a week at 1×10^5 cells/ml.
Cells were washed twice in phosphate buffered saline (PBS) and resuspended in RPMI medium with 4% FBS and glutamine penicillin streptomycin (GPS) (Irvine Scientific Cat No. 9316 used at 1% volume per volume) at 4×10^4 cells/ml before use. Human SCF along with specific samples were added to 4000 cells/well in 96 well plates and were cultured for 72 hrs. 0.5 uCi/well of ^3H-Thymidine was then added to each plate, plates were harvested and counted 4 hours later.

Molecule | megakaryocyte numbers (ACH+ cells) in bone marrow and spleen (Balb/c mice; 150 mg/kg i.v.) | platelet volumes (Balb/c mice; 150 mg/kg i.v.) | platelet counts, time course (Balb/c mice; 150 mg/kg i.v. on Day 0) | specific activity in the radioreceptor assay [1] | specific activity in the UT-7 assay (UT-7 cells)
O=c1[nH]cc(F)c(=O)[nH]1 [5-FU, 5-fluorouracil] | rise dramatically | increase | thrombocytopenic by Day 5; also recorded: rebound thrombocytosis |  | 
SCF^1-130: E. coli human SCF analog, amino acids 1 to 130 (protein) EGICRNRVTNNVKDVTKLVANLPKDYMITLKYVPGMDVLPSHCWISEMVVQLSDSLTDLLDKFSNISEGLSNYSIIDKLVNIVDDLVECVKENSSKDLKKSFKSPEPRLFTPEEFFRIFNRSIDAFKDFV |  |  |  | about 50 % of the value for SCF^1-164 | about 15 % of the value for SCF^1-164
